Data from publication PMC9920413, “New Bicyclic Pyridine-Based Hybrids Linked to the 1,2,3-Triazole Unit: Synthesis via Click Reaction and Evaluation of Neurotropic Activity and Molecular Docking” (Molecules, 2023).
“And” between values parts separate entries of the source, which are not always exact repeats. Equal entries are not always repeated.

What was measured:
mice = experiment: Forced swimming test; settings: 50 mg/kg, 6 min; for Total Time of Immobilization: control 42.0 ± 7.24; for Total Time of Active Swimming: control 318.0 ± 8.36;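 as to all read-outs here: mice made to swim in a water-filled glass vessel under natural light, with durations of active swimming and immobility recorded across the 6 min session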
Method: Forced swimming test. To assess “despair and depression”, the “compelling swimming” model was used. Experimental animals were forced to swim in a glass container (height 22 cm, diameter 14 cm), filled 1/3 with water. […] The latent period of immobilization, the total duration of active swimming and immobilization are fixed at 6 min (the experiments were conducted under natural light).

[1] = test system: thiosemicarbazide (TSC)-induced convulsions; experiment: Thiosemicarbazide (TSC) seizures; assay type: in vivo, mice; settings: mice; for response vs control in vivo at 100 mg/kg: Mus musculus, ip, compound 100 mg/kg i.p., relative to control = 1.0, read-out: Latency of Convulsions, Induced by TSC, I (index of latent period of TSC seizures); for Latency of Convulsions, Induced by TSC, M ± M: compound 100 mg/kg i.p. 45 min before TSC 18 mg/kg s.c.
Method: (§1) The study of the anticonvulsant activity of hybrids 7a–u was assessed by evaluating the antagonism to pentylenetetrazole (PTZ), thiosemicarbazide convulsive seizures, and maximal electroshock-induced seizures (MES). The PTZ-induced test is considered an experimental model for the clonic component of epilepsy seizures and the prognostic anxiolytic activity of the compounds. PTZ is a common convulsive agent used in animal models to investigate the mechanisms of seizures. The model of thiosemicarbazide (TSC) seizures (affecting the exchange of GABA) causes clonic seizures similar to pentylenetetrazole ones. The MES test is used as an animal model for the generalization of tonic seizures in epilepsy. The neurotoxicity and side effects of the compounds (movement coordination disorder, myorelaxation, and ataxia) were also studied on mice with the “rotating rod”[29] test.
Thiosemicarbazide, an antimetabolite of GABA inhibitor (glutamic acid decarboxylase) in the brain, is administered subcutaneously to mice at a dose of 18 mg/kg as a 0.5% solution, which causes clonic convulsions in animals. Anti-thiosemicarbazide activity was evaluated based on the latency time of the onset of seizures. Compounds were administered intraperitoneally at doses of 100 mg/kg in suspension with carboxymethylcellulose and Tween-80 45 min before administration of thiosemicarbazide.

rats [2] = experiment: Electroshock retrograde amnesia, conditioned response of passive avoidance (CRPA); assay type: in vivo; settings: 50 mg/kg, study for 5 min; for The Time Spent in the Light Chamber during the Training of the CRPA, First Day: control 280.0 ± 7.5; for The Time Spent in the Light Chamber When Playing CRPA + MESH after 24 h, Second Day: control 281.0 ± 6.1
Method: Test for learning and memory. The antiamnesic properties of the compounds were studied using an electroshock amnesia model modified by J. Bures, O. Buresova. In rats, a conditioned passive avoidance reaction (CRPA) to a dark-light setting was developed, while the training of the animals with CRPA was recorded. The residence times in the light and dark compartments were recorded for 5 min (300 s). Then, in the dark compartment, the animal received a single current shock (0.4 mA) through the electrode floor (training). To obtain amnesia, a maximum electroconvulsive seizure is induced in animals (conducting a maximum electric current of 50 Hz for 0.2 s through corneal electrodes). Conducting an electric shock immediately after training causes the erasure of the memory trace. The test for reproduction is carried out 24 h after training—after the development of CRPA. During this period, the control animals forget the training and prefer to be in the dark part of the chamber. An increase in the time spent by rats in the light compartment compared to the control on the second day indicates the presence of antiamnestic properties of the compounds.

in vivo = settings: outbred, mouse, in vivo; mice, dead animals after 24 h
Method: (§2) Adverse neurotoxic (muscle relaxant) effects of compounds were studied at doses of 50 to 500 mg/kg when administered intraperitoneally, as well as reference drugs in effect at anticonvulsant doses. Myorelaxation was investigated with the test of a “rotating rod” in mice. To this end, mice were planted on a metal rod with a corrugated rubber coating, which rotated at a speed of 5 revolutions per minute. The number of animals that cnot stay on it for 2 min was determined. To determine the ED50, neurotoxic TD50, and LD50, the statistical method of penetration by Litchfield and Wilcoxon was used.

mouse = experiment: Elevated plus maze (EPM) test; assay type: in vivo; settings: 50 mg/kg i.p., 5 min; for Number of Entries into the Closed Arms: control 9.4 ± 1.6; for Time Spent in the Center: control 28.2 ± 3.12; for Time Spent in Closed Arms: control 269.2 ± 10.4
From the text: Elevated plus maze—EPM test. Anti-anxiety and sedative effects were studied on mouse a model of the “elevated plus maze”. The labyrinth is a cruciform machine raised above the floor, with a pair of open and closed sleeves opposed to each other. Normal animals prefer to spend most of their time in the closed (dark) sleeves of the labyrinth. The anxiolytic effect of the compounds was estimated by the increase in the number of entries into open (light) sleeves and the time spent in them without increasing the total motor activity. This records the time spent in the closed sleeve and the number of attempts to enter the installation center. In the above model, the test compounds and the reference drug were injected intraperitoneally before the experiments. The control animals were administered as an emulsifier. Results were processed statistically (p < 0.05).

[3] = Rotating rod test (neurotoxicity, myorelaxation); assay type: in vivo; settings: outbred, mouse, in vivo, ip, mice, myorelaxation in 50% of animals
Method: as §1, §2

[4] = test system: pentylenetetrazole (PTZ)-induced convulsions; experiment: Antagonism to pentylenetetrazole (PTZ) convulsions; assay type: in vivo; settings: for ED50: Mus musculus, mice, i.p. 45 min before PTZ 90 mg/kg s.c., confidence limits in brackets, p = 0.05, read-out: ED50 (by PTZ antagonism); for TI: therapeutic index TI = LD50/ED50
Method: as §1
The anticonvulsant effect of the newly synthesized compounds was investigated by tests comprising pentylenetetrazole, thiosemicarbazide convulsions, and maximal electroshock (MES). Outbred mice (weight 18–22 g) were used for the study. […] Each animal is placed into an individual plastic cage for observation lasting 1 h. Seizures and clonic convulsions were recorded. […] The control animals were administered as an emulsifier. Every dose of each test compound was studied in six animals.
as §2

rats [5] = experiment: Open field test; assay type: in vivo; settings: 50 mg/kg i.p.; for Cells Examination, amount (absolute data during 5 min): control 2.4 ± 0.67; for Vertical Displacement, amount (absolute data during 5 min): control 7.0 ± 2.14; for Horizontal Displacement, amount (absolute data during 5 min): control 21.6 ± 2.25
Method: Open field test. The research-motor behavior of rats was studied on a modified “open field” model. For this purpose, an installation was used, the bottom of which is divided into squares with holes (cells). Experiments were performed in the daytime with natural light. Within 5 min of the experiment, the indicators of sedative and activating behavior were determined, namely the number of horizontal movements, standing on the hind legs (vertical movements), and sniffing of the cells. The number of animals on this model was eight for each compound, control, and reference drug.

| SMILES | Total Time of Immobilization (mice) [s] | Total Time of Active Swimming (mice) [s] | response vs control in vivo at 100 mg/kg [1] [%] | Latency of Convulsions, Induced by TSC, M ± M [1] [min] | The Time Spent in the Light Chamber during the Training of the CRPA, First Day (rats [2]) [s] | The Time Spent in the Light Chamber When Playing CRPA + MESH after 24 h, Second Day (rats [2]) [s] | LD50 at 24 h (in vivo) [mg/kg] | Time Spent in the Open Arms (mouse; control 2.6 ± 1.6, 50 mg/kg) | Number of Entries into the Closed Arms (mouse) | Time Spent in the Center (mouse) [s] | Time Spent in Closed Arms (mouse) [s] | TD50 at 2 min [3] [mg/kg] | ED50 [4] [mg/kg] | TI [4] | Cells Examination, amount (absolute data during 5 min) (rats [5]) | Vertical Displacement, amount (absolute data during 5 min) (rats [5]) | Horizontal Displacement, amount (absolute data during 5 min) (rats [5]) | Time Spent in the Open Arms (mouse; control 2.6 ± 1.6) [s] |
| --- | --- | --- | --- | --- | --- | --- | --- | --- | --- | --- | --- | --- | --- | --- | --- | --- | --- | --- |
| Cc1nc(OCc2cn(CC(=O)N3CCN(c4nc(C)c5c(c4C#N)CC(C)(C)OC5)CC3)nn2)c(C#N)c2c1COC(C)(C)C2 [7m, 6-{4-[(4-{[(5-Cyano-3,3,8-trimethyl-3,4-dihydro-1H-pyrano [3,4-c]pyridin-6-yl)oxy]methyl}-1H-1,2,3-triazol-1-yl)acetyl]piperazin-1-yl}-3,3,8-trimethyl-3,4-dihydro-1H-pyrano [3,4-c]pyridine-5-carbonitrile] | 5.0 ± 1.2 | 355.0 ± 5.0 | 366 | 36.6 ± 1.11 | 282.0 ± 6.8 | 296.0 ± 5.4 | 820 | 66.4 s and 66.4 ± 7.78 s | 6.4 ± 1.11 | 48.8 ± 5.14 | 175.4 ± 6.23 | > 500 | 15 | 54.7 | 13.4 ± 5.56 | 12 ± 3.95 | 59.8 ± 9.58 |  |
| Cc1nc(N2CCN(C(=O)Cn3cc(COc4nc(-c5ccco5)c5c(c4C#N)CCCC5)nn3)CC2)c(C#N)c2c1COC(C)(C)C2 [7j, 6-(4-{[4-({[4-Cyano-1-(2-furyl)-5,6,7,8-tetrahydroisoquinolin-3-yl]oxy}methyl)-1H-1,2,3-triazol-1-yl]acetyl}piperazin-1-yl)-3,3,8-trimethyl-3,4-dihydro-1H-pyrano [3,4-c]pyridine-5-carbonitrile] | 14.0 ± 3.37 | 346.0 ± 11.35 | 410 | 41.0 ± 3.95 | 293.0 ± 7.2 | 120.0 ± 5.8 | 930 |  | 5.9 ± 2.1 | 19.2 ± 4.15 | 261.2 ± 20.8 | > 500 | 22 | 42.3 | 9.8 ± 3.53 | 10 ± 3.39 | 54.6 ± 10.03 | 19.6 ± 3.5 |
| Cc1nc(N2CCN(C(=O)Cn3cc(COc4nc(C(C)C)c5c(c4C#N)CCC5)nn3)CC2)c(C#N)c2c1COC(C)(C)C2 [7a, 6-{4-[(4-{[(4-Cyano-1-isopropyl-6,7-dihydro-5H-cyclopenta[c]pyridin-3-yl)oxy]methyl}-1H-1,2,3-triazol-1-yl)acetyl]piperazin-1-yl}-3,3,8-trimethyl-3,4-dihydro-1H-pyrano [3,4-c]pyridine-5-carbonitrile] | 18.6 ± 3.2 | 341.4 ± 6.2 | 430 | 43.0 ± 5.2 | 286.0 ± 4.3 | 298.0 ± 6.9 | 890 |  | 5.6 ± 2.1 | 22.4 ± 3.99 | 262.6 ± 14.6 | > 500 | 20 | 44.5 | 8.6 ± 1.89 | 6.8 ± 3.42 | 44.4 ± 10.1 | 15.0 ± 2.1 |
| CCCc1nc(OCc2cn(CC(=O)N3CCN(c4nc(CCC)c5c(c4C#N)CC(C)(C)OC5)CC3)nn2)c(C#N)c2c1COC(C)(C)C2 [7u, 6-{4-[(4-{[(5-Cyano-3,3-dimethyl-8-propyl-3,4-dihydro-1H-pyrano [3,4-c]pyridin-6-yl)oxy]methyl}-1H-1,2,3-triazol-1-yl)acetyl]piperazin-1-yl}-3,3-dimethyl-8-propyl-3,4-dihydro-1H-pyrano [3,4-c]pyridine-5-carbonitrile] | 84.0 ± 12.5 | 276.0 ± 26.0 | 438 | 43.8 ± 1.03 |  |  | 680 |  | 4.4 ± 2.1 | 36.2 ± 2.38 | 243.8 ± 20.7 | > 500 | 32 | 21.3 | 2.2 ± 1.03 | 3.6 ± 0.67 | 41.8 ± 6.12 | 20.0 ± 3.12 |
